Experimental data: patent US20250145589A1, “PYRIDINE DERIVATIVE AND USE THEREOF” (SICHUAN HUIYU PHARMACEUTICAL CO., LTD., priority 2021, published 2025)

Key:
[1] = test system: NCI-H358-AMGR drug-resistant cell line; experiment: NCI-H358-AMGR drug-resistant cell proliferation inhibitory activity test; assay type: cell-based; settings: 72 h; NCI-H358-AMGR drug-resistant cells, 3 days incubation, CellTiter-Glo
Outline: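 Luminescent CellTiter-Glo read-out after 3-day, 37° C compound exposure (8 points, 5-fold series) of AMG510-resistant NCI-H358 cells plated at 4×10^3 per well.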

[2] = test system: NCI-H358 cells (KRAS G12C mutant); experiment: NCI-H358 cell proliferation inhibition (CellTiter-Glo); assay type: cell-based; settings: Homo sapiens, NCI-H358, 72 h; H358 cells (G12C mutation), 3 days, Table 6; read-out: NCI-H358 (IC50)
[3] = test system: MIA PaCa-2 cells (KRAS G12C mutant); experiment: MIA PaCa-2 cell anti-proliferation (CellTiter-Glo); assay type: cell-based; settings: Homo sapiens, 72 h; MIA Paca-2 cells, 3 days, Table 7; read-out: MIA PaCa-2 (IC50)
Outline: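 Viable-cell luminescence (CellTiter-Glo, ≥30 min at 25 °C) measured after a 3-day, 37 °C exposure to compounds at 9 points, 4-fold spaced, in DMEM containing 10% FBS plus 2.5% horse serum. IC50 derived versus no-inhibitor wells.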

PI3Kδ = PI3Kδ (Homo sapiens (Human), UniProt O00329); experiment: Inhibition of PI3Kδ efficacy assay (ADP-Glo kinase assay); assay type: biochemical; settings: Table 4; read-out: PI3Kδ inhibitory activity (IC50)
Sequence of PI3Kδ (O00329 whole entry): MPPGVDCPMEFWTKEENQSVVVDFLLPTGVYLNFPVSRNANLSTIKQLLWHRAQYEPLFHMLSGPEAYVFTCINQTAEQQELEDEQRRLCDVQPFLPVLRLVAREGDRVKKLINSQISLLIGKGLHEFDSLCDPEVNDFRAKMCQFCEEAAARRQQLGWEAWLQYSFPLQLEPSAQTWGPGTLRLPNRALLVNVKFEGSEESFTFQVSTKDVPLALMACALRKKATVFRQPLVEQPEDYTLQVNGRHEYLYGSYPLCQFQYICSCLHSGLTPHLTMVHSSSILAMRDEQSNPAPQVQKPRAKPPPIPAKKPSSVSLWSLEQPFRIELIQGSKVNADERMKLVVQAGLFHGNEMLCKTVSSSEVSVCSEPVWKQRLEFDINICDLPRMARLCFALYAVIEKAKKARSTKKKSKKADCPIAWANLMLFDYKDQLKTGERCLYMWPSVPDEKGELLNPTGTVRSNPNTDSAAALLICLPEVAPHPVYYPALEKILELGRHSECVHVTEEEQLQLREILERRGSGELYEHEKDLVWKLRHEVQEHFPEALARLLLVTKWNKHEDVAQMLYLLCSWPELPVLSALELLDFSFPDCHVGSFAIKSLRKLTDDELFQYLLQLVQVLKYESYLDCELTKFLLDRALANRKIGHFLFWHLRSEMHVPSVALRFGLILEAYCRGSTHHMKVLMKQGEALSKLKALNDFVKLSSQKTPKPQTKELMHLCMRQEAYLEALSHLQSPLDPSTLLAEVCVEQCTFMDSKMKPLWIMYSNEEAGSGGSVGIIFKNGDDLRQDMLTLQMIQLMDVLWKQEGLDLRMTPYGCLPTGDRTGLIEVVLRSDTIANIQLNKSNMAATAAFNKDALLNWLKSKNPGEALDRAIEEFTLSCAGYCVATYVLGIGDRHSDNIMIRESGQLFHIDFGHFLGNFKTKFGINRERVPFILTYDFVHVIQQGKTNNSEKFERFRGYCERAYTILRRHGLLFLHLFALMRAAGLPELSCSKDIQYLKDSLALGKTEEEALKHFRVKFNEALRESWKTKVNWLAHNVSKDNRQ
Sequence of PI3Kδ (P27986 whole entry partner): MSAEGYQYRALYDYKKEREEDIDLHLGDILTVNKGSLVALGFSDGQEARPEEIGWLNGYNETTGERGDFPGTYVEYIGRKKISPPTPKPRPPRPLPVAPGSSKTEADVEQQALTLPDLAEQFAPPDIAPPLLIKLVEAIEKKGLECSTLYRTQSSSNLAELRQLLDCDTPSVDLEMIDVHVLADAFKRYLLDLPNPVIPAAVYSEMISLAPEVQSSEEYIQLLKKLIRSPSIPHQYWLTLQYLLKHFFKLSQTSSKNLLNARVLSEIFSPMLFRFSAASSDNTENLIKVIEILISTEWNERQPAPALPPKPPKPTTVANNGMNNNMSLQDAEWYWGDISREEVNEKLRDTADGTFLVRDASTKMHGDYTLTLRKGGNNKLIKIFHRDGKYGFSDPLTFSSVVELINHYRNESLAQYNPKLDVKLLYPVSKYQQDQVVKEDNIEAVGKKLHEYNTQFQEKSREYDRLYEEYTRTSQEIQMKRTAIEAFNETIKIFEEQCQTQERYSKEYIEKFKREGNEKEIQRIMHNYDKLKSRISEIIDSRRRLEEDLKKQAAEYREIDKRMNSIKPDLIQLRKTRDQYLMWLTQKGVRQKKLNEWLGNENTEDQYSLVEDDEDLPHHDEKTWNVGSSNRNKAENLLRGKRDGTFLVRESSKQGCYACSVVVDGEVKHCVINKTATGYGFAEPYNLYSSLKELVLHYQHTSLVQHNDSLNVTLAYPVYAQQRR
Outline: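 Luminescent ADP-Glo readout of PI3Kδ: after a 60 min RT reaction with PI/ATP substrate, ATP depletion (40 min) and ADP detection (40 min) steps followed. Compounds tested as eight five-fold serial dilutions; inhibition rates fitted to log(inhibitor) vs. response, variable slope, for IC50.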

KRAS^G12C-SOS1 = KRAS^G12C-SOS1 (Homo sapiens (Human), UniProt P01116, G12C); experiment: HTRF KRAS G12C/SOS1 binding assay; settings: Table 5
Sequence of KRAS^G12C-SOS1 (P01116-2 other isoform, or with tags, fused parts or gaps G12C): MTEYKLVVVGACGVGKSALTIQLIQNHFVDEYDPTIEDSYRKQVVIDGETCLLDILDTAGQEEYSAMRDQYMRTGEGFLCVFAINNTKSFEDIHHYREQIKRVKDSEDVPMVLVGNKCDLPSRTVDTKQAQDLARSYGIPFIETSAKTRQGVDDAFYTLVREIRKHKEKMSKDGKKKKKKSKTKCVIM
Outline: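 Compound was serially diluted five-fold over eight points, with a 2 mM DMSO stock. After anti-tag-Tb3+ and anti-tag-XL665 were added, plates were incubated 3 h at 4 °C and read by HTRF (ex 337 nm, em 620/665 nm ratio). IC50 values come from four-parameter variable-slope fits.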

Structure (SMILES) | IC50 [1] [nM] | IC50 [2] [nM] | IC50 [3] [nM] | IC50 (PI3Kδ) [nM] | IC50 (KRAS^G12C-SOS1) [nM]
COc1ncc(-c2ccc3ncnc(C4=CCN(C(=O)/C=C/C(C)=O)CC4)c3c2)cc1NS(=O)(=O)c1sc(C)nc1C [Example 199, (E)-N-(2-methoxy-5-(4-(1-(4-oxopent-2-enoyl)-1,2,3,6-tetrahydropyridin-4-yl)quinazolin-6-yl)pyridin-3-yl)-2,4-dimethylthiazole-5-sulfonamide] | 21.7 | 12 | 41.1 | 12 | 176
COc1ncc(-c2ccc3ncnc(C4=CCN(C(=O)/C=C/C(C)=O)CC4)c3c2)cc1NS(=O)(=O)c1ccccc1F [Example 200, (E)-2-fluoro-N-(2-methoxy-5-(4-(1-(4-oxopent-2-enoyl)-1,2,3,6-tetrahydropyridin-4-yl)quinazolin-6-yl)pyridin-3-yl)benzene-sulfonamide] | 6.5 | 10.9 | 40.5 | 9.7 | 133
COc1ncc(-c2ccc3ncnc(C4=CCN(C(=O)/C=C/C(C)=O)CC4)c3c2)cc1NS(=O)(=O)c1c(F)cccc1F [Example 201, (E)-2,6-difluoro-N-(2-methoxy-5-(4-(1-(4-oxopent-2-enoyl)-1,2,3,6-tetrahydropyridin-4-yl)quinazolin-6-yl)pyridin-3-yl)benzenesulfonamide] | 5.3 | 7.2 | 31.9 | 11.8 | 140
COc1ncc(-c2ccc3ncnc(C4=CCN(C(=O)/C=C/C(C)=O)CC4)c3c2)cc1NS(=O)(=O)c1c(F)cccc1Cl [Example 202, (E)-2-chloro-6-fluoro-N-(2-methoxy-5-(4-(1-(4-oxopent-2-enoyl)-1,2,3,6-tetrahydropyridin-4-yl)quinazolin-6-yl)pyridin-3-yl)benzene-sulfonamide] | 9.6 | 5.2 | 11.6 | 27.9 | 142
COc1ncc(-c2ccc3ncnc(C4CCN(C(=O)/C=C/C(C)=O)CC4)c3c2)cc1NS(=O)(=O)c1sc(C)nc1C [Example 203, (E)-N-(2-methoxy-5-(4-(1-(4-oxopent-2-enoyl)piperidin-4-yl)quinazolin-6-yl)pyridin-3-yl)-2,4-dimethylthiazole-5-sulfonamide] | 5.4 | 8.5 | 51.4 | 10.4 | 419
COc1ncc(-c2ccc3ncnc(C4CCN(C(=O)/C=C/C(C)=O)CC4)c3c2)cc1NS(=O)(=O)c1ccccc1F [Example 204, (E)-2-fluoro-N-(2-methoxy-5-(4-(1-(4-oxopent-2-enoyl)piperidin-4-yl)quinazolin-6-yl)pyridin-3-yl)benzenesulfonamide] | 47.1 | 25.2 | 115 | 17 | 306
COc1ncc(-c2ccc3ncnc(C4CCN(C(=O)/C=C/C(C)=O)CC4)c3c2)cc1NS(=O)(=O)c1c(F)cccc1F [Example 205, (E)-2,6-difluoro-N-(2-methoxy-5-(4-(1-(4-oxopent-2-enoyl)piperidin-4-yl)quinazolin-6-yl)pyridin-3-yl) benzenesulfonamide] | 15.2 | 14.3 | 78.9 | 9 | 369
COc1ncc(-c2ccc3ncnc(C4CCN(C(=O)/C=C/C(C)=O)CC4)c3c2)cc1NS(=O)(=O)c1c(F)cccc1Cl [Example 206, (E)-2-chloro-6-fluoro-N-(2-methoxy-5-(4-(1-(4-oxopent-2-enoyl)piperidin-4-yl)quinazolin-6-yl)pyridin-3-yl) benzenesulfonamide] | 9.5 | 8 | 21 | 15 | 188
COc1ncc(-c2ccc3ncnc(N4CCN(C(=O)/C=C/C(C)=O)CC4)c3n2)cc1NS(=O)(=O)c1c(F)cncc1F [Example 210, (E)-3,5-difluoro-N-(2-methoxy-5-(4-(4-(4-oxopent-2-enoyl)piperazin-1-yl)pyrido[3,2-d]pyrimidin-6-yl)pyridin-3-yl)pyridine-4-sulfonamide] | 287 | 53.4 | 47.7 | 5.9 | 131
COc1ncc(-c2ccc3ncnc(N4CCN(C(=O)/C=C/C(C)=O)CC4)c3n2)cc1NS(=O)(=O)c1cc(F)ccc1F [Example 217, (E)-2,5-difluoro-N-(2-methoxy-5-(4-(4-(4-oxopent-2-enoyl)piperazin-1-yl)pyrido[3,2-d]pyrimidin-6-yl)pyridin-3-yl) benzene-sulfonamide] | 32.1 | 27 | 21.1 | 10.6 | 207
COc1ncc(-c2ccc3ncnc(N4CCN(C(=O)/C=C/C(C)=O)CC4)c3n2)cc1NS(=O)(=O)c1cccc(F)c1F [Example 218, (E)-2,3-difluoro-N-(2-methoxy-5-(4-(4-(4-oxopent-2-enoyl)piperazin-1-yl)pyrido[3,2-d]pyrimidin-6-yl)pyridin-3-yl) benzene-sulfonamide] | 13.5 | 25.6 | 21.5 | 10.8 | 292
COc1ncc(-c2ccc3ncnc(N4CCN(C(=O)/C=C/C(C)=O)CC4)c3n2)cc1NS(=O)(=O)c1c(F)cc(F)cc1F [Example 219, (E)-2,4-trifluoro-N-(2-methoxy-5-(4-(4-(4-oxopent-2-enoyl)piperazin-1-yl)pyrido[3,2-d]pyrimidin-6-yl)pyridin-3-yl) benzene-sulfonamide] | 15.9 | 7.3 | 5.8 | 11.6 | 152
COc1ncc(-c2ccc3ncnc(N4CCN(C(=O)/C=C/C(C)=O)CC4)c3n2)cc1NS(=O)(=O)c1ccncc1F [Example 220, (E)-3-fluoro-N-(2-methoxy-5-(4-(4-(4-oxopent-2-enoyl)piperazin-1-yl)pyrido[3,2-d]pyrimidin-6-yl)pyridin-3-yl) pyridine-4-sulfonamide] | 207 | 61.5 | 58.5 | 11.4 | 274
COc1ncc(-c2ccc3ncnc(N4CCN(C(=O)/C=C/C(C)=O)CC4)c3n2)cc1NS(=O)(=O)c1c(Cl)cncc1Cl [Example 224, (E)-3,5-dichloro-N-(2-methoxy-5-(4-(4-(4-oxopent-2-enoyl)piperazin-1-yl)pyrido[3,2-d]pyrimidin-6-yl)pyridin-3-yl) pyridine-4-sulfonamide] | 220 | 88.1 | 79.3 | 23.8 | 188
COc1ncc(-c2ccc3ncnc(N4CCN(C(=O)/C=C/C(C)=O)CC4)c3n2)cc1NS(=O)(=O)c1c(F)cccc1Cl [Example 225, (E)-2-chloro-6-fluoro-N-(2-methoxy-5-(4-(4-(4-oxopent-2-enoyl)piperazin-1-yl)pyrido[3,2-d]pyrimidin-6-yl)pyridin-3-yl) benzene-sulfonamide] | 34.9 | 13.5 | 15.6 | 8.9 | 110
COc1ncc(-c2ccc3ncnc(N4CCN(C(=O)/C=C/C(C)=O)[C@H](C)C4)c3n2)cc1NS(=O)(=O)c1ccccc1F [Example 228, (R,E)-2-fluoro-N-(2-methoxy-5-(4-(3-methyl-4-(4-oxopent-2-enoyl)piperazin-1-yl)pyrido[3,2-d]pyrimidin-6-yl)pyridin-3-yl)benzene-sulfonamide] | 40.3 | 13.2 | 34 | 15.9 | 294
COc1ncc(-c2ccc3ncnc(C4CCN(C(=O)/C=C/C(C)=O)CC4)c3n2)cc1NS(=O)(=O)c1sc(C)nc1C [Example 230, (E)-N-(2-methoxy-5-(4-(1-(4-oxopent-2-enoyl)piperidin-4-yl)pyrido[3,2-d]pyrimidin-6-yl)pyridin-3-yl)-2,4-dimethylthiazol-5-sulfonamide] | 26.7 | 6.9 | 24.2 | 4.7 | 493
COc1ncc(-c2ccc3ncnc(C4CCN(C(=O)/C=C/C(C)=O)CC4)c3n2)cc1NS(=O)(=O)c1c(F)cc(F)cc1F [Example 231, (E)-2,4,6-trifluoro-N-(2-methoxy-5-(4-(1-(4-oxopent-2-enoyl)piperidin-4-yl)pyrido[3,2-d]pyrimidin-6-yl)pyridin-3-yl)benzenesulfonamide] | 21.6 | 3.7 | 13.2 | 16.1 | 462
COc1ncc(-c2ccc3ncnc(C4CCN(C(=O)/C=C/C(C)=O)CC4)c3n2)cc1NS(=O)(=O)c1ccccc1F [Example 232, (E)-2-fluoro-N-(2-methoxy-5-(4-(1-(4-oxopent-2-enoyl)piperidin-4-yl)pyrido[3,2-d]pyrimidin-6-yl)pyridin-3-yl)benzenesulfonamide] | 44 | 8.7 | 17.7 | 14.6 | 269
